What was measured:
Type in all cases: in vivo
[1] = test system: Monocotyledonous and dicotyledonous test plants; assay: Example B1 herbicidal action, application pre-emergence (Table B1b); conditions: 250 g/ha, evaluated after 4 weeks
Outline: (§1)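 Visual damage rating, 10 = plant dead and 0 = unharmed, taken at 3 weeks for post-emergence and 4 weeks for pre-emergence treatment. Application by spray of formulated aqueous solution either immediately after sowing or at 8–9 days' growth, with mono- and dicot plants kept in a greenhouse.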

[2] = test system: Monocotyledonous and dicotyledonous test plants; assay: Example B1 herbicidal action, application post-emergence (Table B1a); conditions: 250 g/ha, evaluated after 3 weeks, scale 0-10
Outline: as §1

maize [3] = assay: Example E1 pre-emergent safening test on maize (Tables E1 Marista, E2 Lorenzo); conditions: after 14 days
Protocol: The test plants were sown in seed trays under greenhouse conditions. A standard earth was used as the culture substrate. In a pre-emergent stage, the herbicides were applied both by themselves and in a mixture with safeners to the soil surface. The application was carried out with an aqueous suspension of the test substances, prepared from a 25% wettable powder (Example F3, b according to WO 97/34485) or from a suspension concentrate (Example F8 according to WO 97/34485), to achieve a field equivalent of 200 l/ha. The tests were evaluated after 14 days (100%=plants completely dead; 0%=no phytotoxic action on the plants).

maize [4] = assay: Example F1 post-emergent safening test on maize (Table F1, Marista 11f); conditions: post-emergent (GS 11), after 28 days
Protocol: The test plants were sown in containers under glasshouse conditions. A standard earth was used as the culture substrate. In a maize growth stage of one leaf (GS 11), the herbicides were applied both by themselves and in a mixture with safeners to the soil and leaf surface. The application was carried out with an aqueous suspension of the test substances, prepared from a 25% wettable powder (Example F3,b according to WO 97/34485) or a suspension concentrate (Example F8 according to WO 97/34485), to achieve a field equivalent of 200 l/ha. The tests were evaluated after 28 days (100%=plants completely dead; 0%=no phytotoxic action on the plants).

Compound	herbicidal action (damage rating 0-10), Amaranthus [1]	herbicidal action (damage rating 0-10), Digitaria [1]	herbicidal action (damage rating 0-10), Panicum [1]	herbicidal action (damage rating 0-10), Setaria [1]	herbicidal action (damage rating 0-10), Sida [1]	herbicidal damage rating, Abutilon [2]	herbicidal damage rating, Amaranthus [2]	herbicidal damage rating, Digitaria [2]	herbicidal damage rating, Panicum [2]	herbicidal damage rating, Setaria [2]	herbicidal damage rating, Sida [2]	phytotoxic action on maize (Lorenzo) (maize [3]; herbicide alone 100 g/ha)	phytotoxic action on maize (Marista) (maize [3]; herbicide alone 100 g/ha)	phytotoxic action on maize (Lorenzo) (maize [3]; herbicide alone 200 g/ha)	phytotoxic action on maize (Marista) (maize [3]; herbicide alone 200 g/ha)	phytotoxic action on maize (Marista 11f) (maize [4]; herbicide alone 37.5 g/ha)	phytotoxic action on maize (Marista 11f) (maize [4]; herbicide alone 75 g/ha)	phytotoxic action on maize (Marista 11f) (maize [4]; herbicide alone 150 g/ha, 100%=plants completely dead)
Cn1nc(C(F)(F)F)c(C(Cl)S(=O)(=O)C2=NOC(C)(C)C2)c1OCC(F)(F)F (centres unmarked) [2.04]	10	10	10	10	8	7	4	4	8	6	6	2.5%	10%	17.5%	15%	–	–	–
Cn1nc(C(F)(F)F)c(C(Br)S(=O)(=O)C2=NOC(C)(C)C2)c1OCC(F)(F)F (centres unmarked) [2.10]	10	10	10	10	8	6	8	6	7	5	4	–	–	–	–	20%	50%	75%

— patent publication US8680290B2, “Isoxazoline derivatives and their use as herbicides” (Syngenta Limited, priority 2004, dated 2014)
